This is an account of results in PubChem BioAssay (NCI).

Among the test systems are SK-MEL-28 melanoma; HT29 colon; OVCAR-4 ovarian; OVCAR-8 ovarian; EKVX NSCLC; SR leukemia; HOP-62 NSCLC; SK-OV-3 ovarian; HCT-15 colon; UACC-62 melanoma.
Assay in all cases: NCI tumour cell line growth inhibition, 48 h

Where “and” joins values, the source holds several entries; their conditions need not be identical. Equal values may be shown once.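 Growth conditions: 96-well plates. Treatment: test compound, 48 hours, 5 concentrations. Analysis: linear interpolation between bracketing concentrations; unreached endpoints set to highest concentration. The concentration for 50% growth inhibition is given as GI50. TGI denotes the concentration required for complete inhibition of growth.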 Some results are limits rather than exact numbers.

On to `CN1CCC(C(=O)Nc2n[nH]c3nc(-c4ccc(O)cc4)c(Br)cc23)CC1`, for which the GI50 is 1.21 µM and 2.46 µM in the experiment with SK-MEL-28 melanoma; 4.11 µM and 5.33 µM with HT29 colon; 0.986 µM and 1.17 µM with OVCAR-4 ovarian; 0.965 µM and 1.77 µM in the experiment with OVCAR-8 ovarian; 6.62 µM and 2.51 µM in the experiment on EKVX NSCLC; 0.701 µM and 0.306 µM in the experiment on SR leukemia. The GI50 in the experiment on HOP-62 NSCLC was 2.39 µM and 2.43 µM; in the experiment on SK-OV-3 ovarian, 1.19 µM and 1.28 µM; with HCT-15 colon, 6.77 µM and 9.83 µM; in the experiment on UACC-62 melanoma, 2.85 µM and 3.83 µM. The TGI in the experiment with SK-MEL-28 melanoma is 6.15 µM and 7.56 µM; in the experiment with HT29 colon, 12.1 µM and 16.1 µM; in the experiment with OVCAR-4 ovarian, > 12.4 µM and 6.27 µM; in the experiment with OVCAR-8 ovarian, more than 20.2 µM; in the experiment on EKVX NSCLC it was more than 25 µM; with SR leukemia it was more than 25 µM. Further, the TGI is > 22.6 µM and 15.8 µM in the experiment on HOP-62 NSCLC; more than 25 µM with SK-OV-3 ovarian; more than 25 µM in the experiment on HCT-15 colon; 6.87 µM and 8.81 µM in the experiment on UACC-62 melanoma.

As to `Nc1nc2ccc3[nH]ncc3c2c2c1CCCC2`, the GI50 with SK-MEL-28 melanoma was 1.62 µM; in the experiment on HT29 colon it was 1.88 µM; in the experiment with OVCAR-4 ovarian it was 3.6 µM; in the experiment on OVCAR-8 ovarian, 2.14 µM; with EKVX NSCLC, 1.54 µM; in the experiment with SR leukemia, 0.467 µM. The GI50 was 1.99 µM in the experiment on HOP-62 NSCLC, 2.94 µM in the experiment with SK-OV-3 ovarian, 1.88 µM in the experiment on HCT-15 colon and 1.43 µM with UACC-62 melanoma. In addition, the TGI came out at 4.33 µM in the experiment on SK-MEL-28 melanoma; 11.8 µM with HT29 colon; 7.92 µM in the experiment with OVCAR-4 ovarian; 18.8 µM in the experiment with OVCAR-8 ovarian; 5.38 µM with EKVX NSCLC; 6.77 µM in the experiment with HOP-62 NSCLC. Moreover, the figures for the TGI in the experiment on SK-OV-3 ovarian, with HCT-15 colon and in the experiment on UACC-62 melanoma were 14.7 µM, 7.22 µM and 3.47 µM, respectively.

As for `CC(C)[NH-].CC(C)[NH-].O.O.[Cl][Pt+2][Cl]`, the GI50 in the experiment with SK-MEL-28 melanoma was 46.8 µM; with HT29 colon it was 12.7 µM; in the experiment with OVCAR-4 ovarian, 28.7 µM; in the experiment with OVCAR-8 ovarian, 36.5 µM; in the experiment on EKVX NSCLC it was 66.7 µM; with SR leukemia it was 17.8 µM. Moreover, the GI50 with HOP-62 NSCLC was 55.8 µM; with SK-OV-3 ovarian it was 28.6 µM; in the experiment on HCT-15 colon it was 35.7 µM; with UACC-62 melanoma, 26.7 µM. Also, the TGI in the experiment with SK-MEL-28 melanoma came to 197 µM; with HT29 colon it was 83.8 µM; in the experiment with OVCAR-4 ovarian, 106 µM; with OVCAR-8 ovarian, 167 µM; in the experiment on EKVX NSCLC, 203 µM; in the experiment on SR leukemia it was 53.5 µM. The TGI in the experiment with HOP-62 NSCLC amounted to 194 µM; in the experiment with SK-OV-3 ovarian, 92.6 µM; in the experiment with HCT-15 colon it was 208 µM; in the experiment on UACC-62 melanoma, 128 µM.

For the compound `O=C(NCCCCCCNC(=O)n1cc(F)c(=O)[nH]c1=O)NCCCOCCOCCOCCOCCOCCOCCOCCOCCOCCOCCOCCOCCOCCOCCOCCOCCOCCOCCOCCOCCOCCCNC(=O)C(O)C(O)C(OC1OC(CO)C(O)C(O)C1O)C(O)CO` (centres undefined), the TGI in the experiment with SK-MEL-28 melanoma, in the experiment with HT29 colon, in the experiment with OVCAR-4 ovarian, with OVCAR-8 ovarian, in the experiment with EKVX NSCLC and in the experiment with SR leukemia was more than 100 µM throughout. Besides, the TGI with HOP-62 NSCLC, in the experiment with SK-OV-3 ovarian, in the experiment with HCT-15 colon and in the experiment with UACC-62 melanoma was more than 100 µM each time.

For `Cc1ccc(C(=O)N2CCN(C(=O)c3ccc(C)cc3)c3ccccc32)cc1`, the TGI with SK-MEL-28 melanoma is more than 100 µM; with HT29 colon, 21.3 µM; with OVCAR-4 ovarian, more than 100 µM; in the experiment with OVCAR-8 ovarian it was more than 100 µM; in the experiment on EKVX NSCLC it was more than 100 µM; in the experiment on SR leukemia, more than 100 µM. In addition, the TGI with HOP-62 NSCLC was more than 100 µM; in the experiment on SK-OV-3 ovarian, 25 µM; in the experiment on HCT-15 colon it was more than 100 µM; in the experiment with UACC-62 melanoma, more than 100 µM.

Regarding `CCOC(=O)NC1=C(N2CC2)C(=O)C(NC(=O)OCC)=C(N2CC2)C1=O`, the GI50 was 22.3 µM and 16.6 µM in the experiment with SK-MEL-28 melanoma; 14.5 µM and 9.07 µM in the experiment on HT29 colon; 12.8 µM and 7 µM in the experiment with OVCAR-4 ovarian; 4.71 µM in the experiment with OVCAR-8 ovarian; 24.2 µM in the experiment on EKVX NSCLC; 0.389 µM in the experiment on SR leukemia. Also, the GI50 in the experiment with HOP-62 NSCLC is 1.56 µM and 1.75 µM; in the experiment with SK-OV-3 ovarian it was 9.93 µM and 8.49 µM; in the experiment on HCT-15 colon, 11.4 µM and 10.2 µM; in the experiment on UACC-62 melanoma, 1.75 µM. Also, the TGI was 25 µM and 42.4 µM and 54.4 µM in the experiment with SK-MEL-28 melanoma; 25 µM and 47.3 µM and 70.2 µM in the experiment with HT29 colon; 24 µM and 11.8 µM and 17.7 µM with OVCAR-4 ovarian; 14.3 µM and 14.5 µM in the experiment with OVCAR-8 ovarian; 25 µM and 16.1 µM with EKVX NSCLC; 7.9 µM and 60.6 µM in the experiment on SR leukemia. In addition, the TGI was 15.1 µM and 7.44 µM and 2.9 µM with HOP-62 NSCLC; 25 µM and 20.3 µM and 31.8 µM in the experiment on SK-OV-3 ovarian; 25 µM and 42.9 µM and 44.2 µM in the experiment on HCT-15 colon; 12 µM and 4.37 µM and 1.74 µM with UACC-62 melanoma.

As to `CN1C(=O)C(=Cc2cn(Cc3ccccc3)c3ccccc23)C(=O)N(C)C1=O`, the GI50 in the experiment on SK-MEL-28 melanoma is more than 70.2 µM; in the experiment with HT29 colon, more than 78.8 µM; in the experiment with OVCAR-4 ovarian, 5.85 µM; in the experiment on OVCAR-8 ovarian, 35.8 µM; with EKVX NSCLC, 35.8 µM; in the experiment on SR leukemia, 43.1 µM. Besides, the GI50 in the experiment with HOP-62 NSCLC is 43 µM; in the experiment with SK-OV-3 ovarian, 6.16 µM; in the experiment on HCT-15 colon, more than 95.6 µM; in the experiment with UACC-62 melanoma, 1.87 µM. Besides, the TGI in the experiment with SK-MEL-28 melanoma is more than 100 µM; in the experiment with HT29 colon it was more than 100 µM; in the experiment on OVCAR-4 ovarian, more than 100 µM; in the experiment on OVCAR-8 ovarian, more than 82.6 µM; in the experiment with EKVX NSCLC, more than 100 µM; in the experiment with SR leukemia it was more than 100 µM. In addition, the TGI in the experiment on HOP-62 NSCLC is more than 100 µM; in the experiment with SK-OV-3 ovarian it was more than 100 µM; with HCT-15 colon, more than 100 µM; with UACC-62 melanoma, more than 35.3 µM.

Regarding `N#C/C(=C\Nc1ccccn1)C(=O)c1ccco1`, the TGI in the experiment with SK-MEL-28 melanoma, in the experiment with HT29 colon, in the experiment on OVCAR-4 ovarian, in the experiment on OVCAR-8 ovarian, with EKVX NSCLC and in the experiment on SR leukemia was more than 100 µM throughout. Also, the TGI in the experiment with HOP-62 NSCLC, with SK-OV-3 ovarian, in the experiment with HCT-15 colon and in the experiment on UACC-62 melanoma was more than 100 µM throughout.

As for `O=C(NCCN1CCC(O)CC1)c1cc2c(o1)C(=O)c1ccccc1C2=O`, the GI50 is 0.549 µM with SK-MEL-28 melanoma; 0.296 µM with HT29 colon; 0.182 µM with OVCAR-4 ovarian; 0.322 µM with OVCAR-8 ovarian; 0.979 µM in the experiment on EKVX NSCLC; 0.396 µM in the experiment on SR leukemia. Also, the GI50 in the experiment on HOP-62 NSCLC is 0.23 µM; in the experiment with SK-OV-3 ovarian, 1.51 µM; in the experiment with HCT-15 colon it was 0.21 µM; in the experiment on UACC-62 melanoma, 0.164 µM. The TGI stood at 1.74 µM in the experiment on SK-MEL-28 melanoma; 3.43 µM in the experiment on HT29 colon; 0.436 µM with OVCAR-4 ovarian; 1.41 µM in the experiment with OVCAR-8 ovarian; 2.49 µM in the experiment on EKVX NSCLC; 20.5 µM in the experiment on SR leukemia. The TGI in the experiment with HOP-62 NSCLC stood at 0.51 µM; with SK-OV-3 ovarian, 2.92 µM; in the experiment with HCT-15 colon, 0.624 µM; in the experiment with UACC-62 melanoma it was 0.308 µM.
